# Measured values published in paper PMC8874540, “Pyrazole and Triazole Derivatives as Mycobacterium tuberculosis UDP-Galactopyranose Inhibitors” (Pharmaceuticals, 2022).
# Counter-ions that a name gives are not always drawn.
# Molecular target: T1, UDP-galactopyranose mutase (MtbUGM) (Mycobacterium tuberculosis, UniProt P9WIQ1)
# T1 construct: gene glf; His6-tagged MtbUGM from pET-29b(+)
# Assay: HPLC kinetic assay of UDP-Galf to UDP-Galp, global fit
# Type: biochemical
# T1 sequence (P9WIQ1 whole entry): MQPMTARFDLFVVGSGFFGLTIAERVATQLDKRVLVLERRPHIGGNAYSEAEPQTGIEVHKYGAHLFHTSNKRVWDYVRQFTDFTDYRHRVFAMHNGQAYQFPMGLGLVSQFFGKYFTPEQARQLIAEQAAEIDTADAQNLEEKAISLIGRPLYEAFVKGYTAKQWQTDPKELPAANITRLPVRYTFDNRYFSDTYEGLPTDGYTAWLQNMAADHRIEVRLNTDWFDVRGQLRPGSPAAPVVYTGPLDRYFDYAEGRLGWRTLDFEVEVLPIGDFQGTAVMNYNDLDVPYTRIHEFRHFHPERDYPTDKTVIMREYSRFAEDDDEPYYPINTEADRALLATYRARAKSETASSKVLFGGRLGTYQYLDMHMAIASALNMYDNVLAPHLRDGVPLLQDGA
row,SMILES,Ki
1,"Cc1cc(OC(=O)c2ccc(S(N)(=O)=O)cc2)n(-c2ccc(Cl)cc2)n1 [DA10, 4-Sulfamoyl-[3-methyl-1-p-chlorophenyl-1H-pyrazol-5-yl] benzoic acid ester]",51 ± 4 µM

# Molecular target: T1, UDP-galactopyranose mutase (MtbUGM)
# Assay: HPLC assay, % inhibition at […], […] UDP-Galf
# Type: biochemical
row,SMILES,"HPLC assay, % inhibition at 60 μM, 15 μM UDP-Galf"
1,"Cc1nn(-c2ccccc2)c(O)c1C(=O)c1ccc(Cl)cc1 [DA1, 4-p-chlorobenzoyl-1-phenyl-3-methyl-5-pyrazol]",DA1 and DA2 showed comparable inhibition to that of MS208
2,"Cc1nn(-c2ccc(Cl)cc2)c(O)c1C(=O)c1ccccc1 [DA2, 4-benzoyl-1-p-chlorophenyl-3-methyl-5-pyrazol]",DA1 and DA2 showed comparable inhibition to that of MS208
3,"Cc1nn(-c2ccc(Cl)cc2)c(O)c1S(=O)(=O)c1ccc(Cl)cc1 [DA5, 4-p-chlorobenzosulfonyl-1-p-chlorophenyl-3-methyl-5-pyrazol hydrochloride]","The sulfonyl derivative, DA5, showed comparable % inhibition to that of the carbonyl derivative MS208."
4,COC(=O)c1ccc(C(=O)Oc2cc(C)nn2-c2ccc(Cl)cc2)cc1 [DA8],"two of these O-acyl analogues, DA8 and DA10 still showed comparable % inhibition to MS208"
5,O=C(CCc1cn(-c2ccc(Cl)cc2)nn1)Oc1ccc(Cl)cc1 [DA11],"The triazolo analogues, DA11-DA13, showed comparable % inhibition to that of MS208."
6,"OC(c1ccc(Cl)cc1)c1cn(-c2ccc(Cl)cc2)nn1 (stereo not drawn) [DA12, [1-(4-chlorophenyl)-1H-1,2,3-triazol-4-yl]-4-chlorophenylmethanol]","The triazolo analogues, DA11-DA13, showed comparable % inhibition to that of MS208."
7,"O=C(c1ccc(Cl)cc1)c1cn(-c2ccc(Cl)cc2)nn1 [DA13, 4-p-chlorobenzoyl-1-p-chlorophenyl-1H-1,2,3-triazole]","The triazolo analogues, DA11-DA13, showed comparable % inhibition to that of MS208."
8,"Cc1nn(-c2ccc(Cl)cc2)c(O)c1C(=O)c1ccc(Cl)cc1 [MS208, 4-p-chlorobenzoyl-1-p-chlorophenyl-3-methyl-5-pyrazol]",DA1 and DA2 showed comparable inhibition to that of MS208
